Test results reported in patent publication US12109184B2, “Personalized methods of treating cancer” (CANCER RESEARCH TECHNOLOGY LIMITED, priority 2020, dated 2024).
Entries after “also recorded” stand apart in the source; their conditions may differ.

Experiments:
Type in all cases: cell-based
[1] = system: breast, colorectal and pancreatic cancer cell lines; test: Cell counting in complete or cysteine-free medium, cell lines not given; settings: supplementation during cysteine starvation
[2] = system: SW480 and MDA-MB-231 cells; test: Cell counting, rescue by cysteine precursors during cysteine starvation; settings: supplement at 0.8 mM
Description: HCT116, SW480, MDA-MB-468, MDA-MB-231, AsPC-1, BxPC-3, CFPAC-1, MIAPaCa-2, PANC-1, Panc10.05, SW1990, U-251, LN-18, LN-229, T98G, U-343, A-172 cells were used. Cell lines were authenticated using Short Tandem Repeat (STR) profiling and tested for mycoplasma. Colorectal and breast cancer cell lines were grown in Dulbecco's Modified Eagle Medium (DMEM), pancreatic ductal adenocarcinoma (PDAC) cell lines were grown in Roswell Park Memorial institute (RPMI) 1640. All cell lines were supplemented with penicillin-streptomycin, amphotericin, 2 mM L-glutamine, and 10% fetal bovine serum (FBS). Cells were kept at 37° C. in 5% CO2 in a humidified cell culture incubator. A formulated medium lacking cysteine, cystine, methionine, and serine was used as a base for creating experimental media. The base medium formulation contained 0.2 mM L-histidine, 0.4 mM L-isoleucine, 0.4 mM L-leucine, 0.4 mM L-lysine, 0.2 mM L-phenylalanine, 0.4 mM L-threonine, 0.08 mM L-tryptophan, 0.4 mM L-valine, 0.2 mM L-arginine, 2 mM L-glutamine, 0.2 mM L-tyrosine, 0.4 mM L-alanine, 0.3 mM L-proline, 0.15 mM L-glutamic acid, 0.1 mM L-aspartic acid, 0.2 mM L-asparagine, and 0.4 mM glycine. The base medium was supplemented with 10% dialyzed FBS, penicillin-streptomycin, and amphotericin. To ensure an adequate supply of vitamin B6 (a crucial co-factor for de novo cysteine synthesis), base medium was supplemented with additional 20 μM vitamin B6. The control experimental medium was the base medium supplemented with 0.4 mM L-cysteine, 0.2 mM L-methionine, and 0.4 mM L-serine. The cysteine starvation (−Cys) experimental medium was base medium supplemented with 0.2 mM L-methionine and 0.4 mM L-serine.
Cells were seeded at 6×10^4 cells per well into 24-well plates (triplicate wells per condition) in the relevant complete medium and adhered for a full 24-hour period. A ‘time-0’ plate was included to record the starting cell number to calculate relative cell numbers. Cells were washed once with phosphate-buffered saline (PBS) before receiving experimental medium containing or lacking the specified amino acids, metabolites, or drugs. At the stated time-points the medium was removed, cells were fixed in a 4% formalin-PBS solution. Cells were then washed and stored in PBS before staining with 4′,6-diamidino-2-phenylindole (DAPI)-Triton™ X100-PBS solution for 1 hour, followed by storage in PBS at 4° C. until further analysis. DAPI-stained cell nuclei were detected via microscopy.
Homocysteine, cystathionine, glutathione, putrescine, spermine, spermidine, GPX4 inhibitor ML210, SMOX inhibitor MDL 72527, PAOX inhibitor diminazene aceturate, ferrostatin-1 and erastin were used. AMD1 inhibitor sardomozide/SAM486A, GPX4 inhibitor RSL3, and CSE inhibitor beta-cyano-L-alanine were used. […]

[3] = system: MTAP-deleted HCT116 cells; test: Cell counting during cysteine starvation, MTAP-deleted HCT116; settings: −Cys, low levels of methionine
Text: [NT] Successfully transfected cells were selected with puromycin and grown as clonal colonies. Clones were selected based initially on MTA efflux measured by liquid chromatography mass spectrometry (LC-MS). Clones with greatest MTA efflux were selected, and methylthioadenosine phosphorylase knockout (MTAP-KO) was then confirmed by western blot. MTAP-KO HCT116 cells were transfected with pCMV-Hygro-MTAP and pCMV-Hygro-negative control vector, selected using hygromycin B, and grown as clonal colonies. Clones were selected based initially on MTA efflux measured by LC-MS. Clones with low MTA efflux were selected, then MTAP re-expression was confirmed by western blot. […] DAPI-stained cell nuclei were detected via microscopy. […] For experiments using spermine oxidase (SMOX) and polyamine oxidase (PAOX) inhibitors or MTOB, cells were pre-treated with stated concentrations for 16 hours in complete medium. After pre-treatment, cells were washed in PBS, and treatment was continued in complete or cysteine-free medium for stated times. After treatment was finished, cells were fixed and stained as described above. For experiments using MTA, polyamines, GPX4 and CSE inhibitors, treatment started at the same time as cysteine starvation. For experiments involving hypoxic conditions, cells were seeded in normoxic conditions and allowed to adhere for 24 hours before control and cysteine starvation medium was added and cells were immediately transferred either to a humidified cell culture incubator set to 37° C. in 20% O2 (normoxia), or a hypoxia chamber set to 37° C. in 1% O2 (hypoxia) for the stated times. Cells were fixed immediately and stained as described above.

In the case of CSCC[C@H](N)C(=O)O [methionine], the “rescue from cysteine starvation-induced cell death (summary in discussion)” value [1] is reported as “unable to provide rescue; also recorded: did not”, the “restoration of proliferation during cysteine starvation” value [2] is reported as “no rescue” and the “effect of methionine on survival during cysteine starvation” value [3] is reported as “inhibited the ability of MTAP deleted cells to survive”.
